Data: ChEMBL document CHEMBL3639247, “Pyrazole compounds as CRTH2 antagonists” (2014)
pKi: −log10 of the molar value.

Biological target: T1, Prostaglandin D2 receptor 2 (Homo sapiens, UniProt Q9Y5Y4)
T1 sequence (Q9Y5Y4 whole entry): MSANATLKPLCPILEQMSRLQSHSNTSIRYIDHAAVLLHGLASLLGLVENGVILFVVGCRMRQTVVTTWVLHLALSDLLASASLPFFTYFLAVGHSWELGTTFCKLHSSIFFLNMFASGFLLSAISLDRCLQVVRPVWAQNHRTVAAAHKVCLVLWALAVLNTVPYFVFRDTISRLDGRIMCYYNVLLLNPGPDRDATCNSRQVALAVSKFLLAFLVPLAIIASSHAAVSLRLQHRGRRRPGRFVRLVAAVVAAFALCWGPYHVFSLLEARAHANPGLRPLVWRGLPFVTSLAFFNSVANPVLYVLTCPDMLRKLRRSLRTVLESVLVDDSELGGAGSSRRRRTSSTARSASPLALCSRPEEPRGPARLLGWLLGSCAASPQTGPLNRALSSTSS
Experiment: Radioligand Binding Assay: The CRTH2 receptor binding assay is performed in a scintillation proximity assay (SPA) format with the radioligand [3H]-PGD2 (Perkin Elmer, NET616000MC). CHO-K1-hCRTH2 cell membranes are again homogenized by passing through a single use needle (Terumo, 23Gx1'') and diluted in SPA incubation buffer in suitable concentrations (0.5-10 ug protein/well). The SPA assay is set up in 96 well microtiter plates (Perkin Elmer, CatNo. 6005040) in SPA incubation buffer with a final volume of 200 ul per well and final concentration of 50 mM Tris-HCl, 10 mM MgCl2, 150 mM NaCl, 1 mM EDTA pH 7.4, 0.1% bovine serum albumin). The SPA assay mixture contains 60 ul of the membrane suspension, 80 ul of Wheat Germ Agglutinin coated PVT beads (GE Healthcare, RPNQ-0001, 0.3 mg/well), 40 ul of [3H]-PGD2 diluted in SPA buffer to a final concentration of 1 nM (50 000 dpm) and 20 ul of the test compound (dissolved in dimethylsulfoxid).

pKi: 7.62
SMILES: CCc1nn(Cc2ccc(NC(=O)C3CCC(C(F)(F)F)CC3)cc2)c(CC)c1CC(=O)O (stereo unspecified)
